The results in this text go back to PMC3262907 (ACS Chemical Biology, 2011).

Common to all, as to type: cell-based
One assay has as its system HCT116 cells. Put plainly: Proliferation assay. Particulars: Homo sapiens, HCT-116, 96 h, read-out: Cell EC50 HCT 116.
In a further assay the test system is HT29 cells. Put plainly: Proliferation assay. Particulars: Homo sapiens, HT-29, 96 h, read-out: Cell EC50 HT29.
For the next assay, the system named is HeLa S3 cells. Briefly: Proliferation assay. Particulars: Homo sapiens, HeLa S3, 96 h, read-out: Cell EC50 HeLa.
For assay [1], the system named is monopolar spindle formation. Put plainly: Spindle morphology by indirect immunofluorescence. As to conditions: cells arrested in metaphase.

Regarding `Cc1cc(Nc2cc(N3CCN(C)CC3)nc(Sc3ccc(NC(=O)C4CC4)cc3)n2)[nH]n1` [Compound 32, VX680], the EC50 (usually the concentration at which the effect is half-maximal) turned out to be 15.8 nM with HCT116 cells, 119 nM in the assay on HT29 cells and 16.4 nM with HeLa S3 cells.

For `CCN(CCCOc1ccc2c(Nc3cc(CC(=O)Nc4cccc(F)c4)n[nH]3)ncnc2c1)CCOP(=O)(O)O` [Compound 33, AZD1152], the EC50 in the assay with HCT116 cells was found to be 17.4 nM; in the assay on HT29 cells, 239 nM; in the assay on HeLa S3 cells, 3.8 nM. Besides, the “concentration up to which no significant monopolarity resulted” value in assay [1] is on record as greater than 500 nM.

For `O=C(O)c1ccc(Nc2ncc3c(n2)-c2ccc(Cl)cc2C(c2c(F)cccc2F)=NC3)cc1` [Compound 34, MLN8054], the EC50 with HCT116 cells was determined as 50.3 nM; with HT29 cells, 688 nM; in the assay with HeLa S3 cells, 214 nM.
